These results are taken from patent US11446287B2, “Compounds and methods for EP300 or CBP modulation and indications therefor” (Opna Immuno-Oncology SA, priority 2019, dated 2022).

The target in this assay is T1, Recombinant human BRD4 containing dual bromodomains (BRD4-BD12 (1-477)) (Homo sapiens, UniProt O60885).
T1 construct: Recombinant human BRD4 containing dual bromodomains (BRD4-BD12 (1-477)); made in house; host or cells: E. coli BL21-CodonPlus (DE3), modified pET vector
Nature of the assay: BRD4 Alphascreen binding assay. Put shortly: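 His-tagged human BRD4 tandem bromodomains (1-477, E. coli) incubated 1 h at room temperature with biotinylated tetra-acetylated H4 (1-21) peptide and compound in HEPES pH 7.5 buffer with 2 mM DTT. AlphaScreen signal read 30 min after adding beads (7.5 μg/ml); IC50 from four-parameter fit after normalization to controls.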

Regarding `Cc1noc(C)c1-c1cnc2c(c1)c(-c1ccc(C(=O)O)cc1OC1CC1)cn2C1CCOCC1` [P-0379, 3-cyclopropoxy-4-(5-(3,5-dimethylisoxazol-4-yl)-1-(tetrahydro-2H-pyran-4-yl)-1H-pyrrolo[2,3-b]pyridin-3-yl)benzoic acid], the IC50 is 8 to 1000 µM.
The figure for `Cc1noc(C)c1-c1cnc2c(c1)c(-c1c(Cl)cc(C(=O)O)cc1OC(F)(F)F)cn2C(C1CCC1)C1CCC1` [P-0380, 3-chloro-4-(1-(dicyclobutylmethyl)-5-(3,5-dimethylisoxazol-4-yl)-1H-pyrrolo[2,3-b]pyridin-3-yl)-5-(trifluoromethoxy)benzoic acid] is 8 to 1000 µM; for `Cc1noc(C)c1-c1cnc2c(c1)c(-c1c(Cl)cc(C(=O)O)cc1OC1CC1)cn2C1CCOCC1` [P-0381, 3-chloro-5-cyclopropoxy-4-(5-(3,5-dimethylisoxazol-4-yl)-1-(tetrahydro-2H-pyran-4-yl)-1H-pyrrolo[2,3-b]pyridin-3-yl)benzoic acid] it is 1 to 8 µM.
The figure for `Cc1noc(C)c1-c1cnc2c(c1)c(-c1ccc(C(=O)O)cc1OC(F)(F)F)cn2C1CCCC1` [P-0382, 4-(1-cyclopentyl-5-(3,5-dimethylisoxazol-4-yl)-1H-pyrrolo[2,3-b]pyridin-3-yl)-3-(trifluoromethoxy)benzoic acid] is 1 to 8 µM; for `Cc1noc(C)c1-c1cnc2c(c1)c(-c1ccc(C(=O)O)cc1OC(F)(F)F)cn2C1(C)CCOC1` (stereo not drawn) [P-0383, 4-(5-(3,5-dimethylisoxazol-4-yl)-1-(3-methyltetrahydrofuran-3-yl)-1H-pyrrolo[2,3-b]pyridin-3-yl)-3-(trifluoromethoxy)benzoic acid] it is 8 to 1000 µM; for `Cc1noc(C)c1-c1cnc2c(c1)c(-c1ccc(C(=O)O)cc1OC(F)(F)F)cn2-c1cnc(C2CC2)nc1` [P-0384, 4-(1-(2-cyclopropylpyrimidin-5-yl)-5-(3,5-dimethylisoxazol-4-yl)-1H-pyrrolo[2,3-b]pyridin-3-yl)-3-(trifluoromethoxy)benzoic acid] it is 1 to 8 µM.
Take `Cc1noc(C)c1-c1cnc2c(c1)c(-c1ccc(C(=O)O)cc1OC(F)(F)F)cn2C1(C)CCOCC1` [P-0385, 4-(5-(3,5-dimethylisoxazol-4-yl)-1-(4-methyltetrahydro-2H-pyran-4-yl)-1H-pyrrolo[2,3-b]pyridin-3-yl)-3-(trifluoromethoxy)benzoic acid]: the IC50 is 8 to 1000 µM.
With `Cc1noc(C)c1-c1cnc2c(c1)c(-c1c(Cl)cc(C(=O)O)cc1OC(F)(F)F)cn2-c1cnc(C2CC2)nc1` [P-0386, 3-chloro-4-(1-(2-cyclopropylpyrimidin-5-yl)-5-(3,5-dimethylisoxazol-4-yl)-1H-pyrrolo[2,3-b]pyridin-3-yl)-5-(trifluoromethoxy)benzoic acid], the concentration for half-maximal inhibition (IC50) was 1 to 8 µM.
As for `Cc1noc(C)c1-c1cnc2c(c1)c(-c1ccc(C(=O)O)cc1OCC(F)F)cn2-c1cnc(C2CC2)nc1` [P-0387, 4-(1-(2-cyclopropylpyrimidin-5-yl)-5-(3,5-dimethylisoxazol-4-yl)-1H-pyrrolo[2,3-b]pyridin-3-yl)-3-(2,2-difluoroethoxy)benzoic acid], the IC50 lay within 8 to 1000 µM.
